Measured values as given in PubChem BioAssay AID256 (DTP/NCI, 2004).
Values joined by “and” are separate entries in the source; they are usually repeats but may differ in a detail not shown here. Equal values may be shown once. Inconclusive results and toxic doses are left out. The calls were made as follows: active = survival T/C of 150% or more; inactive = T/C below 125% in these data.

Tested on: CD2F1 mice, L1210 leukemia ip, survival T/C
Assay: NCI In Vivo Anticancer Drug Screen. Data for tumor model L1210 Leukemia (intraperitoneal) in CD2F1 (CDF1) mice
Conditions: endpoint: mean survival time, higher = longer survival
In short: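 Ratio T/C, where T is the treated-group value and C the vehicle-dosed control value, from mice implanted with a transplantable tumor.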

[1] = dose: 50.0 mg/kg/injection, schedule: Q01DX009 (ip), vehicle: Klucel (hydroxypropylcellulose) (HPC)
[2] = dose: 100.0 mg/kg/injection, schedule: Q01DX009 (ip), vehicle: Klucel (hydroxypropylcellulose) (HPC)
[3] = dose: 100.0 mg/kg/injection, schedule: Q01DX009 (ip), vehicle: saline with Tween-80
[4] = dose: 200.0 mg/kg/injection, schedule: Q01DX009 (ip), vehicle: saline with Tween-80
[5] = dose: 400.0 mg/kg/injection, schedule: Q01DX009 (ip), vehicle: saline with Tween-80
[6] = dose: 50.0 mg/kg/injection, schedule: Q01DX009 (ip), vehicle: other
[7] = dose: 100.0 mg/kg/injection, schedule: Q01DX001 (ip), vehicle: other
[8] = dose: 200.0 mg/kg/injection, schedule: Q01DX001 (ip), vehicle: other
[9] = dose: 400.0 mg/kg/injection, schedule: Q01DX001 (ip), vehicle: other
[10] = dose: 25.0 mg/kg/injection, schedule: Q04DX002 (ip), vehicle: saline with Tween-80
[11] = dose: 50.0 mg/kg/injection, schedule: Q04DX002 (ip), vehicle: saline with Tween-80
[12] = dose: 200.0 mg/kg/injection, schedule: Q01DX009 (ip), vehicle: Klucel (hydroxypropylcellulose) (HPC)

Measured: T/C

O=S1(=O)C=CCCC=C1
inactive: [1] 93 % of control | [2] 93 % of control

CCCCCCCCCCCCCCCCCC[N+]1(C)CCOCC1
inactive: dose: 6.25 mg/kg/injection, schedule: Q04DX002 (ip), vehicle: Klucel (hydroxypropylcellulose) (HPC) 95 % of control | dose: 12.5 mg/kg/injection, schedule: Q04DX002 (ip), vehicle: Klucel (hydroxypropylcellulose) (HPC) 91 % of control | dose: 25.0 mg/kg/injection, schedule: Q04DX002 (ip), vehicle: Klucel (hydroxypropylcellulose) (HPC) 90 % of control and 98 % of control | dose: 100.0 mg/kg/injection, schedule: Q04DX002 (ip), vehicle: Klucel (hydroxypropylcellulose) (HPC) 101 % of control

CC1=C(c2ccccc2)C(c2ccccc2)C(C)C1=O (centres undefined)
inactive: [3] 100 % of control | [4] 98 % of control | [5] 87 % of control

CC(=O)OCC1OC(n2cc(F)c(=O)[nH]c2=O)CC1OC(C)=O (centres undefined)
inactive: [6] 123 % of control | [7] 93 % of control | [8] 110 % of control | dose: 200.0 mg/kg/injection, schedule: Q01DX009 (ip), vehicle: other 117 % of control | [9] 102 % of control | dose: 800.0 mg/kg/injection, schedule: Q01DX001 (ip), vehicle: other 119 % of control

COc1c(C)ccc2c1CCN1C3=C(CCC21)CC1(CC3)OCCO1 (centres undefined)
inactive: [3] 95 % of control | dose: 100.0 mg/kg/injection, schedule: Q04DX003 (ip), vehicle: saline with Tween-80 92 % of control | [4] 89 % of control | dose: 200.0 mg/kg/injection, schedule: Q04DX003 (ip), vehicle: saline with Tween-80 94 % of control | dose: 400.0 mg/kg/injection, schedule: Q04DX003 (ip), vehicle: saline with Tween-80 94 % of control

C(#CCNC1CCCCC1)CNC1CCCCC1
inactive: [10] 94 % of control | [11] 98 % of control

CC(C(=O)c1cccs1)=C(C(F)(F)F)C(F)(F)F
inactive: dose: 6.25 mg/kg/injection, schedule: Q01DX009 (ip), vehicle: other 100 % of control | dose: 12.5 mg/kg/injection, schedule: Q01DX009 (ip), vehicle: other 94 % of control | dose: 25.0 mg/kg/injection, schedule: Q01DX009 (ip), vehicle: other 100 % of control | [6] 97 % of control

O=S(=O)(O)c1cccc2ncccc12
inactive: dose: 100.0 mg/kg/injection, schedule: Q01DX001 (ip), vehicle: Klucel (hydroxypropylcellulose) (HPC) 113 % of control | dose: 200.0 mg/kg/injection, schedule: Q01DX001 (ip), vehicle: Klucel (hydroxypropylcellulose) (HPC) 92 % of control | dose: 400.0 mg/kg/injection, schedule: Q01DX001 (ip), vehicle: Klucel (hydroxypropylcellulose) (HPC) 95 % of control

CC(=O)OC1C(OC(C)=O)C(OC(C)=O)C2OC(C)(C)OC2C1OC(C)=O (centres undefined)
inactive: [2] 96 % of control | [12] 93 % of control | dose: 400.0 mg/kg/injection, schedule: Q01DX009 (ip), vehicle: Klucel (hydroxypropylcellulose) (HPC) 100 % of control

CCOC(=O)Nc1cc(N)c2nc(CN(C)c3ccccc3)cnc2n1
inactive: [7] 91 % of control | [8] 94 % of control | [9] 91 % of control

CC(=O)Nc1onc(C)c1NC(C)=O
inactive: [3] 95 % of control | [4] 101 % of control | [5] 95 % of control

O=Nc1c(-c2ccccc2)n(O)[n+]([O-])c1-c1ccccc1
inactive: [1] 89 % of control | [2] 89 % of control | [12] 97 % of control

N#CC(=C=[N-])C(C#N)(C#N)Cc1ccccc1.[C-]#[O+].[C-]#[O+].[Fe+6].[c-]1[c-][c-][cH-][c-]1
inactive: dose: 12.5 mg/kg/injection, schedule: Q04DX002 (ip), vehicle: saline with Tween-80 93 % of control | [10] 97 % of control | [11] 97 % of control
